Like-named read-outs stand apart in the source and are kept apart here.
Assays:
PRMT1 = PRMT1 (Homo sapiens, UniProt Q99873); assay: Methyltransferase inhibition panel: PRMT1; type: biochemical
Procedure: (§1) The ability of ETP69 to inhibit methyltransferases was tested.

[1] = test system: wildtype and AD model (APP/PS1-transgenic) mice; assay: Visual stimuli X-maze (ViS4M) test, colour and contrast modes; type: in vivo
Procedure: (§2) The effects of single and repeated ETP69 injections in mice were tested. The experimental timeline is depicted in FIG. 5. Three parallel injection conditions were tested: a single ETP69 condition, a boosted ETP69 injection, and repeated ETP69 injections. The single injection mice received one injection of ETP69 or DMSO at Day 0. The mice that received a boosted injection received one injection of ETP69 or DMSO at day 0 and one injection at day 9. The mice that received repeated injections received 11 injections of ETP69 or DMSO at day 0 or day 9. Both wildtype and AD model (APP/PS1-transgenic) mice were tested.
FIG. 6C-6F depicts the results of the mice on the color mode of the visual stimuli X-maze test. […] FIG. 6G-611 depict the results of the contrast mode of the visual stimuli X-maze test.
Old (18-month-old) mice were administered ETP69. Both a neurodegenerative model (AD+) and wild type siblings were tested. Mice were treated with i.p. injection of ETP69 [E; 10 mg/kg dissolved in dimethyl sulfoxide (DMSO)].

SUV420H1TV2 = SUV420H1TV2 (Homo sapiens, UniProt Q4FZB7); assay: Methyltransferase inhibition panel: SUV420H1TV2; type: biochemical
Procedure: as §1

GLP = target: T1, GLP (Homo sapiens, UniProt Q9H9B1); assay: Methyltransferase inhibition panel: GLP; type: biochemical
T1 sequence (Q9H9B1 1-1298): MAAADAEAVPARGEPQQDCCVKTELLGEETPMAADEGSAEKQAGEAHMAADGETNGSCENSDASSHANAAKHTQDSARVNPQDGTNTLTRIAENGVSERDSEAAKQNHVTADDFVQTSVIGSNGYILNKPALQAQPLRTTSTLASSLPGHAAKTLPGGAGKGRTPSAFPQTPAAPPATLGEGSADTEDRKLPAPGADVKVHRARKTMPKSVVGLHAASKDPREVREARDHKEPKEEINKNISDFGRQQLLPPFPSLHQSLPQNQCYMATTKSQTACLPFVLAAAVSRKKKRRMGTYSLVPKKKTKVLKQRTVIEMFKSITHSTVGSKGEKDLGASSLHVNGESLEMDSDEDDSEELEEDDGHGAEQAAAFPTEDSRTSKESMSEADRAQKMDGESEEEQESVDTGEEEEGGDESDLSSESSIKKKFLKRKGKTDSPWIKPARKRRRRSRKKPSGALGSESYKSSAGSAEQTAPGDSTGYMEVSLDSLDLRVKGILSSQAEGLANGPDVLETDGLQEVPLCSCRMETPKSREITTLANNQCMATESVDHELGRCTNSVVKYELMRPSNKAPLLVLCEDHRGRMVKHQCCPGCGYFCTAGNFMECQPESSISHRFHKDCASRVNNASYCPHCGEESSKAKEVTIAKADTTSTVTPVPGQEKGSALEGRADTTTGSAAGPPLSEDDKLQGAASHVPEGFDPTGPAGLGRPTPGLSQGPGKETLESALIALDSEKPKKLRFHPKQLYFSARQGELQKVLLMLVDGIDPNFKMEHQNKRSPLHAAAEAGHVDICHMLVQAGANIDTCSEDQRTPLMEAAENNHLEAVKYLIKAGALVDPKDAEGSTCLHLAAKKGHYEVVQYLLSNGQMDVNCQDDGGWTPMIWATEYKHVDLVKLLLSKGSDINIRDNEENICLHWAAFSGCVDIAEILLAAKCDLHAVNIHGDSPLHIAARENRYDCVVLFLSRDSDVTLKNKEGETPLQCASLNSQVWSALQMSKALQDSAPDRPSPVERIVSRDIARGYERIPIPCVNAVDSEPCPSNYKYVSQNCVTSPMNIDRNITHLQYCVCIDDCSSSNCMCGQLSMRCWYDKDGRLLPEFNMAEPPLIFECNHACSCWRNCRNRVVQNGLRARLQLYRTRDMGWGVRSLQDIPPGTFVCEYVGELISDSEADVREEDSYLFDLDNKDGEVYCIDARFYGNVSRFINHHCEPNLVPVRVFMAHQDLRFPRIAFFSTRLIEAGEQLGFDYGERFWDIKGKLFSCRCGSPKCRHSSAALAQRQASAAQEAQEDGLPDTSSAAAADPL
Procedure: as §1

AD+ mice = assay: Open Field Barnes Maze test; type: in vivo; details: AD+ mice vs AD+ mice treated with DMSO
Procedure: as §2
The results of the Open Field Barnes Maze test indicate hippocampal-based spatial memory. FIG. 7A depicts a schematic of the Barnes Maze Test. […] The results of the fear conditioning test indicate spatial memory.

[2] = read-out: Enzyme % Activity (relative to DMSO controls) Data 1
[3] = read-out: Enzyme % Activity (relative to DMSO controls) Data 2

Chain of SUV420H1TV2 (Q4FZB7 1-393 isoform Q4FZB7-2): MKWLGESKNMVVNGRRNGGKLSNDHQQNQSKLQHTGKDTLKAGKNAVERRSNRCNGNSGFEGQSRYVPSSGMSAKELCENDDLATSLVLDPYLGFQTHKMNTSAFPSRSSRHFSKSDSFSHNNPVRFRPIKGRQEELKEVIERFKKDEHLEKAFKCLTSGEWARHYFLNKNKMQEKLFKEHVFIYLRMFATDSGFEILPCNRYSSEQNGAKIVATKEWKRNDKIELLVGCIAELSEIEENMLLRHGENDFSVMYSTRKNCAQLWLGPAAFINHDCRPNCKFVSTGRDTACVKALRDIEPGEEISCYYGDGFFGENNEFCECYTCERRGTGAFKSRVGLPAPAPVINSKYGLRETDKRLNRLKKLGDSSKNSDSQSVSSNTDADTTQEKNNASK
Chain of PRMT1 (Q99873 whole entry): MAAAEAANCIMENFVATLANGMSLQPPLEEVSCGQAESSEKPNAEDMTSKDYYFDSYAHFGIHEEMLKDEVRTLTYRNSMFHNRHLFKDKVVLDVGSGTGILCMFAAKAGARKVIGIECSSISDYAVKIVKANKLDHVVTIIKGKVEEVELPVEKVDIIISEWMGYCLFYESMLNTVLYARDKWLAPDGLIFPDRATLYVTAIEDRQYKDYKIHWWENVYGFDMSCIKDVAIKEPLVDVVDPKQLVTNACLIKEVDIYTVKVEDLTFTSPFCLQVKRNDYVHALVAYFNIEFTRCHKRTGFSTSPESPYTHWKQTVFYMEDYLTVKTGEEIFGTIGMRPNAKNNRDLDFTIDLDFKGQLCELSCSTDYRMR

Q: What does the source list for CN1C(=O)[C@@]23C[C@](C)(C#N)[C@H](c4ccc5c(c4)OCO5)N2C(=O)[C@]1(C)SS3 (racemic) [ETP69, Rac-(3S,6S,7S,8aS)-6-(benzo[d][1,3]dioxol-5-yl)-2,3,7-trimethyl-1,4-dioxohexahydro-6H-3,8a-epidithiopyrrolo[1,2-a]pyrazine-7-carbonitrile]?
A: remaining activity at 20 µM (PRMT1; [2]): 114%; remaining activity at 20 µM (PRMT1; [3]): 115%; percent alternation and bidirectional movement ([1]; color mode, AD+ mice): significant increase; percent alternation ([1]; contrast mode, AD+ mice): significant increase; colour X-maze spontaneous alternations ([1]; old WT mice, single dose 10 mg/kg i.p., p=0.0027): increased; remaining activity at 20 µM (SUV420H1TV2; [2]): 91.5%; remaining activity at 20 µM (SUV420H1TV2; [3]): 90%; remaining activity at 2.5 µM (GLP; [2]): 91.4%; remaining activity at 2.5 µM (GLP; [3]): 94.2%; memory retention (AD+ mice): improvement
